US12398107B2, “Fungicidal nitroanilino substituted pyrazoles” (FMC Corporation, priority 2018, dated 2025)

Columns and labels:
Type in all cases: in vivo
Septoria tritici = assay: Test A: wheat leaf blotch, preventive spray on wheat seedlings; settings: 50 ppm, 100 = 100% disease control, 0 = no control relative to controls
Excerpt: (§1) General protocol for preparing test suspensions for Tests A-F: the test compounds were first dissolved in acetone in an amount equal to 3% of the final volume and then suspended at the desired concentration (in ppm) in acetone and purified water (50/50 mix by volume) containing 250 ppm of the surfactant PEG400 (polyhydric alcohol esters). The resulting test suspensions were then used in Tests A-F. The test solution was sprayed to the point of run-off on wheat seedlings. The following day the seedlings were inoculated with a spore suspension of Septoria tritici (the causal agent of wheat leaf blotch) and incubated in a saturated atmosphere at 24° C. for 48 h, and then moved to a growth chamber at 20° C. for 17 days, after which time disease ratings were made. A rating of 100 indicates 100% disease control and a rating of 0 indicates no disease control (relative to the controls). A dash (-) indicates the compound was not tested.

[1] = tested on: Puccinia recondita f. sp. tritici; assay: Test B: wheat leaf rust, preventive spray on wheat seedlings; settings: 50 ppm, 100 = 100% disease control, 0 = no control relative to controls
Excerpt: as §1, with “Puccinia recondita f. sp.” for “Septoria”, “rust)” for “blotch)”, “20°” for “24°”, “24” for “48”, “7” for “17”

[2] = tested on: Blumeria graminis f. sp. tritici; assay: Test C: wheat powdery mildew, preventive spray on wheat seedlings; settings: 50 ppm, rated after 8 days, 100 = 100% disease control, 0 = no control
Excerpt: General protocol for preparing test suspensions for Tests A-F: the test compounds were first dissolved in acetone in an amount equal to 3% of the final volume and then suspended at the desired concentration (in ppm) in acetone and purified water (50/50 mix by volume) containing 250 ppm of the surfactant PEG400 (polyhydric alcohol esters). The resulting test suspensions were then used in Tests A-F. The test suspension was sprayed to the point of run-off on wheat seedlings. The following day the seedlings were inoculated with a spore dust of Blumeria graminis f. sp. tritici, (also known as Erysiphe graminis f. sp. tritici, the causal agent of wheat powdery mildew) and incubated in a growth chamber at 20° C. for 8 days, after which time visual disease ratings were made. A rating of 100 indicates 100% disease control and a rating of 0 indicates no disease control (relative to the controls). A dash (-) indicates the compound was not tested.

Phakopsora pachyrhizi = assay: Test D: Asian soybean rust, preventive spray on soybean seedlings; settings: 50 ppm, 100 = 100% disease control, 0 = no control
Excerpt: General protocol for preparing test suspensions for Tests A-F: the test compounds were first dissolved in acetone in an amount equal to 3% of the final volume and then suspended at the desired concentration (in ppm) in acetone and purified water (50/50 mix by volume) containing 250 ppm of the surfactant PEG400 (polyhydric alcohol esters). The resulting test suspensions were then used in Tests A-F.
The test solution was sprayed to the point of run-off on soybean seedlings. The following day the seedlings were inoculated with a spore suspension of Phakopsora pachyrhizi (the causal agent of Asian soybean rust) and incubated in a saturated atmosphere at 22° C. for 24 h and then moved to a growth chamber at 22° C. for 8 days, after which time visual disease ratings were made.
A rating of 100 indicates 100% disease control and a rating of 0 indicates no disease control (relative to the controls). A dash (-) indicates the compound was not tested.

Botrytis cinerea = assay: Test E: tomato Botrytis, preventive spray on tomato seedlings; settings: 50 ppm, 100 = 100% disease control, 0 = no control
Excerpt: (§2) General protocol for preparing test suspensions for Tests A-F: the test compounds were first dissolved in acetone in an amount equal to 3% of the final volume and then suspended at the desired concentration (in ppm) in acetone and purified water (50/50 mix by volume) containing 250 ppm of the surfactant PEG400 (polyhydric alcohol esters). The resulting test suspensions were then used in Tests A-F. The test suspension was sprayed to the point of run-off on tomato seedlings. The following day the seedlings were inoculated with a spore suspension of Botrytis cinerea (the causal agent of tomato Botrytis) and incubated in a saturated atmosphere at 20° C. for 48 h, and then moved to a growth chamber at 24° C. for 3 days, after which time visual disease ratings were made. A rating of 100 indicates 100% disease control and a rating of 0 indicates no disease control (relative to the controls). A dash (-) indicates the compound was not tested.

Alternaria solani = assay: Test F: tomato early blight, preventive spray on tomato seedlings; settings: 50 ppm, 100 = 100% disease control, 0 = no control
Excerpt: as §2, with “Alternaria solani” for “Botrytis cinerea”, “early blight)” for “Botrytis)”, “27°” for “20°”, “20°” for “24°”

## Cc1nn(C)c(Nc2c(F)cccc2[N+](=O)[O-])c1-c1c(F)cc(F)cc1Br [Compound 1, 4-(2-bromo-4,6-difluorophenyl)-N-(2-fluoro-6-nitrophenyl)-1,3-dimethyl-1H-pyrazol-5-amine]
Septoria tritici; Zymoseptoria tritici, read-out: Test A disease control rating (wheat leaf blotch)
  pest or weed control at 50 ppm: 100%
[1]; read-out: Test B disease control rating (wheat leaf rust)
  pest or weed control at 50 ppm: 100%
[2]; Blumeria graminis, 192 h, read-out: Test C disease control rating (wheat powdery mildew)
  pest or weed control at 50 ppm: 100%
Phakopsora pachyrhizi; Phakopsora pachyrhizi, read-out: Test D disease control rating (Asian soybean rust)
  pest or weed control at 50 ppm: 84%
Botrytis cinerea; Botrytis cinerea, read-out: Test E disease control rating (tomato Botrytis)
  pest or weed control at 50 ppm: 100%
Alternaria solani; Alternaria solani, read-out: Test F disease control rating (tomato early blight)
  pest or weed control at 50 ppm: 99%

## COc1cc(F)c(-c2c(C)nn(C)c2Nc2c(Cl)cc(F)cc2[N+](=O)[O-])c(F)c1 [Compound 2]
Septoria tritici
  Test A disease control rating (wheat leaf blotch): 100%
[1]
  Test B disease control rating (wheat leaf rust): 100%
[2]
  Test C disease control rating (wheat powdery mildew): 99%
Phakopsora pachyrhizi
  Test D disease control rating (Asian soybean rust): 94%
Botrytis cinerea
  Test E disease control rating (tomato Botrytis): 99%
Alternaria solani
  Test F disease control rating (tomato early blight): 61%

## COCc1ccc(Nc2c(-c3ccc(F)cc3Cl)c(C)nn2C)c([N+](=O)[O-])c1 [Compound 4]
[1]
  Test B disease control rating (wheat leaf rust): 86%
[2]
  Test C disease control rating (wheat powdery mildew): 76%
Phakopsora pachyrhizi
  Test D disease control rating (Asian soybean rust): 0%
Botrytis cinerea
  Test E disease control rating (tomato Botrytis): 74%
Alternaria solani
  Test F disease control rating (tomato early blight): 0%

## C#CCOc1ccc(Nc2c(-c3ccc(F)cc3Cl)c(C)nn2C)c([N+](=O)[O-])c1 [Compound 5]
Septoria tritici
  Test A disease control rating (wheat leaf blotch): 97%
[1]
  Test B disease control rating (wheat leaf rust): 86%
[2]
  Test C disease control rating (wheat powdery mildew): 76%
Phakopsora pachyrhizi
  Test D disease control rating (Asian soybean rust): 19%
Botrytis cinerea
  Test E disease control rating (tomato Botrytis): 95%
Alternaria solani
  Test F disease control rating (tomato early blight): 0%

## CCc1ccc(Nc2c(-c3ccc(F)cc3Cl)c(C)nn2C)c([N+](=O)[O-])c1 [Compound 6]
[1]
  Test B disease control rating (wheat leaf rust): 74%
[2]
  Test C disease control rating (wheat powdery mildew): 27%
Phakopsora pachyrhizi
  Test D disease control rating (Asian soybean rust): 0%
Botrytis cinerea
  Test E disease control rating (tomato Botrytis): 55%
Alternaria solani
  Test F disease control rating (tomato early blight): 0%

## Cc1nn(C)c(Nc2c([N+](=O)[O-])ccc(F)c2F)c1-c1ccc(F)cc1Cl [Compound 7]
Septoria tritici
  Test A disease control rating (wheat leaf blotch): 100%
[1]
  Test B disease control rating (wheat leaf rust): 99%
[2]
  Test C disease control rating (wheat powdery mildew): 94%
Phakopsora pachyrhizi
  Test D disease control rating (Asian soybean rust): 96%
Botrytis cinerea
  Test E disease control rating (tomato Botrytis): 99%
Alternaria solani
  Test F disease control rating (tomato early blight): 89%

## Cc1nn(C)c(Nc2c(Cl)cc(Br)cc2[N+](=O)[O-])c1-c1ccc(F)cc1Cl [Compound 8]
Septoria tritici
  Test A disease control rating (wheat leaf blotch): 99%
[1]
  Test B disease control rating (wheat leaf rust): 99%
[2]
  Test C disease control rating (wheat powdery mildew): 92%
Phakopsora pachyrhizi
  Test D disease control rating (Asian soybean rust): 73%
Botrytis cinerea
  Test E disease control rating (tomato Botrytis): 99%
Alternaria solani
  Test F disease control rating (tomato early blight): 73%

## Cc1nn(C)c(Nc2c(F)cc(F)cc2[N+](=O)[O-])c1-c1ccc(Cl)cc1Cl [Compound 9]
Septoria tritici
  Test A disease control rating (wheat leaf blotch): 100%
[1]
  Test B disease control rating (wheat leaf rust): 100%
[2]
  Test C disease control rating (wheat powdery mildew): 97%
Phakopsora pachyrhizi
  Test D disease control rating (Asian soybean rust): 0%
Botrytis cinerea
  Test E disease control rating (tomato Botrytis): 97%
Alternaria solani
  Test F disease control rating (tomato early blight): 99%

## Cc1nn(C)c(Nc2c(Cl)cc(F)cc2[N+](=O)[O-])c1-c1ccc(Cl)cc1Cl [Compound 10]
Septoria tritici
  Test A disease control rating (wheat leaf blotch): 100%
[1]
  Test B disease control rating (wheat leaf rust): 99%
[2]
  Test C disease control rating (wheat powdery mildew): 48%
Phakopsora pachyrhizi
  Test D disease control rating (Asian soybean rust): 0%
Botrytis cinerea
  Test E disease control rating (tomato Botrytis): 68%
Alternaria solani
  Test F disease control rating (tomato early blight): 9%

## Cc1nn(C)c(Nc2c(F)cc(Cl)cc2[N+](=O)[O-])c1-c1ccc(Cl)cc1Cl [Compound 11]
Septoria tritici
  Test A disease control rating (wheat leaf blotch): 100%
[1]
  Test B disease control rating (wheat leaf rust): 98%
[2]
  Test C disease control rating (wheat powdery mildew): 97%
Phakopsora pachyrhizi
  Test D disease control rating (Asian soybean rust): 0%
Botrytis cinerea
  Test E disease control rating (tomato Botrytis): 98%
Alternaria solani
  Test F disease control rating (tomato early blight): 99%

## Cc1nn(C)c(Nc2c(F)cccc2[N+](=O)[O-])c1-c1ccc(Cl)cc1F [Compound 12]
Septoria tritici
  Test A disease control rating (wheat leaf blotch): 100%
[1]
  Test B disease control rating (wheat leaf rust): 99%
[2]
  Test C disease control rating (wheat powdery mildew): 81%
Phakopsora pachyrhizi
  Test D disease control rating (Asian soybean rust): 0%
Botrytis cinerea
  Test E disease control rating (tomato Botrytis): 97%
Alternaria solani
  Test F disease control rating (tomato early blight): 53%

## COc1ccc(Nc2c(-c3c(F)cccc3F)c(C)nn2C)c([N+](=O)[O-])c1 [Compound 87]
[1]
  Test B disease control rating (wheat leaf rust): 99%
[2]
  Test C disease control rating (wheat powdery mildew): 98%
Phakopsora pachyrhizi
  Test D disease control rating (Asian soybean rust): 0%
Botrytis cinerea
  Test E disease control rating (tomato Botrytis): 98%
Alternaria solani
  Test F disease control rating (tomato early blight): 93%

## COc1ccc(Nc2c(-c3ccc(F)cc3F)c(C)nn2C)c([N+](=O)[O-])c1 [Compound 88]
[1]
  Test B disease control rating (wheat leaf rust): 97%
[2]
  Test C disease control rating (wheat powdery mildew): 84%
Phakopsora pachyrhizi
  Test D disease control rating (Asian soybean rust): 0%
Botrytis cinerea
  Test E disease control rating (tomato Botrytis): 99%
Alternaria solani
  Test F disease control rating (tomato early blight): 9%

## COc1ccc(Nc2c(-c3c(F)cc(F)cc3Cl)c(C)nn2C)c([N+](=O)[O-])c1 [Compound 89]
[1]
  Test B disease control rating (wheat leaf rust): 100%
[2]
  Test C disease control rating (wheat powdery mildew): 99%
Phakopsora pachyrhizi
  Test D disease control rating (Asian soybean rust): 80%
Botrytis cinerea
  Test E disease control rating (tomato Botrytis): 99%
Alternaria solani
  Test F disease control rating (tomato early blight): 99%

## Cc1ccc(Nc2c(-c3c(F)cc(F)cc3Cl)c(C)nn2C)c([N+](=O)[O-])c1 [Compound 106]
[1]
  Test B disease control rating (wheat leaf rust): 100%
[2]
  Test C disease control rating (wheat powdery mildew): 98%
Phakopsora pachyrhizi
  Test D disease control rating (Asian soybean rust): 0%
Botrytis cinerea
  Test E disease control rating (tomato Botrytis): 99%
Alternaria solani
  Test F disease control rating (tomato early blight): 68%

## Cc1ccc(Nc2c(-c3ccc(F)cc3F)c(C)nn2C)c([N+](=O)[O-])c1 [Compound 107]
[1]
  Test B disease control rating (wheat leaf rust): 91%
[2]
  Test C disease control rating (wheat powdery mildew): 61%
Phakopsora pachyrhizi
  Test D disease control rating (Asian soybean rust): 0%
Botrytis cinerea
  Test E disease control rating (tomato Botrytis): 98%
Alternaria solani
  Test F disease control rating (tomato early blight): 0%
